# From US20060286040A1, “Medicament compositions comprising a heterocyclic compound and an anticholinergic” (Kyowa Hakko Kogyo Co., Ltd., priority 2003, published 2006)
# System: guinea pig main bronchus
# Test: EFS-induced cholinergic and tachykininergic contraction in the guinea pig main bronchus (organ bath)
# Settings: for Cholinergic Contraction, % of the first contraction / Tachykininergic contraction, % of the first contraction: EFS 30 V, 0.5 ms, 8 Hz, 15 s, 10 nmol/L tiotropium bromide and/or 30 μmol/L Compound 2, measured 20 min after addition, indomethacin 5 μmol/L, means ± S.E.M
# [1] = 10 nmol/L tiotropium bromide and/or 30 μmol/L Compound 2, 20 min after addition
Compound,Effect on EFS-induced cholinergic contraction (in words) [1],"Cholinergic Contraction, % of the first contraction","Tachykininergic contraction, % of the first contraction",Effect on EFS-induced tachykininergic contraction (in words) [1]
tiotropium bromide,inhibited the cholinergic contraction,59.7 ± 6.3 % of the first contraction,90.9 ± 8.3 % of the first contraction,
COc1ccc(C(=O)Cc2c(Cl)cncc2Cl)c2c1OC1(CCCC1)O2 [Compound 2],,105.8 ± 2.4 % of the first contraction,66.1 ± 6.5 % of the first contraction,inhibited the tachykininergic contraction
